The results in this text go back to patent publication US10233161B2, “Pharmaceutical compositions and salts of a 1,2,4-oxadiazole benzoic acid” (PTC Therapeutics, Inc., priority 2014, dated 2019).

A short description of data set [1]: Quantitative whole body autoradiography, Long Evans rats. The conditions noted are these: 50 mg/kg single oral. It is filed as in vivo. As to the method:
(§1) Two studies were performed to evaluate the concentrations of Compound 1/metabolites in various tissues, including the eyes, following a single dose administration of radiolabeled Compound 1 (^14C-3-[5-(2-fluoro-phenyl)-[1,2,4]oxadiazol-3-yl]benzoic acid) to Sprague Dawley and Long Evans rats.
Long Evans rats: In a quantitative whole body autoradiography (QWBA) study, 8 male Long Evans rats (partially pigmented) obtained from Harlan were administered a single oral gavage dose of 50 mg/kg ^14C-Compound 1.
Animals were individually housed and certified rodent diet and water were provided ad libitum. Animals were acclimated for 3 days prior to dose administration. Environmental controls for the animal room were set to maintain a temperature of 18 to 26° C., a relative humidity of 50±20%, and a 12-hour light/12-hour dark cycle. As necessary, the 12-hour dark cycle was interrupted to accommodate study procedures. Animals were fasted overnight through 4 hours postdose on the day of dosing. At dosing, the animals weighed 160 to 178 g and were approximately 7 weeks of age. One animal/time point was sacrificed via exsanguination (cardiac puncture) under isoflurane anesthesia at 0.5, 1, 2, 4, 8, 24, 72, and 168 hours postdose.

Data set [2] can be described thus: Quantitative whole body autoradiography, Sprague Dawley rats. The conditions noted are these: 1 hr, 50 mg/kg single oral. The data set is classed as in vivo. The procedure: as §1
Sprague Dawley rats: As part of a quantitative whole body autoradiography (QWBA) study, 4 male and 4 female Sprague Dawley rats (albino) obtained from Charles River were administered a single oral gavage dose of 50 mg/kg ^14C-3-[5-(2-fluoro-phenyl)-[1,2,4]oxadiazol-3-yl]benzoic acid.
Animals were individually housed and certified rodent diet and water were provided ad libitum. Animals were acclimated for 8 days prior to dose administration. Environmental controls for the animal room were set to maintain a temperature of 18 to 26° C., a relative humidity of 50±20%, and a 12-hour light/12-hour dark cycle. The 12-hour dark cycle may have been interrupted to accommodate study procedures. Animals were fasted overnight through 4 hours postdose on the day of dosing. At dosing, the animals weighed 204 to 260 g and were approximately 9 to 11 weeks of age. […] The concentrations of ^14C-3-[5-(2-fluoro-phenyl)-[1,2,4]oxadiazol-3-yl]benzoic acid in the eye and related tissues are shown in the following table.

Data set [3] in a line: Comparative equilibrium solubility study of micronized and non-micronized Compound 1. The note with it: for Concentration of Compound 1 in 0.1N HCl + 0.5% SLS: pH 1; for Concentration of Compound 1 in PBS: pH 7.4. The data set is classed as physicochemical. As to the method:
Objective: The purpose of this study was to evaluate the solubility of micronized and non-micronized Compound 1. The solubility study was conducted in two representative media in pH 1 (0.1 N HCl with 0.5% sodium lauryl sulfate) and in pH 7.4 (0.1M phosphate buffered saline). The experiment further compared the initial rate of dissolution and equilibrium solubilities of micronized and non-micronized Compound 1 over a period of time.
Solubility measurement procedure comprised the steps of: 1) weighing and mixing approximately 100 mg of micronized Compound 1 and 100 mL of 0.1N HCl with 0.5% SLS into amber jar 1; 2) weighing and mixing approximately 100 mg of micronized Compound 1 and 100 mL of PBS into amber jar 2; 3) weighing and mixing approximately 100 mg of non-micronized Compound 1 and 100 mL of 0.1N HCl with 0.5% SLS into amber jar 3; 4) weighing and mixing approximately 100 mg of non-micronized Compound 1 and 100 mL of PBS into amber jar 4; 5) mixing all samples in their respective amber jars using a multi purpose rotator for 2 hours; 4) sampling at 5 minutes, 10 minutes, 30 minutes, 60 minutes, 90 minutes, 120 minutes; 5) filtering the samples and 6) analyzing the filtrates using HPLC. For each time point, 10 mL of sample was drawn using a 10 mL syringe with a needle attached filter and using a syringe-top 0.45 μm PTFE syringe filter. The first 9 mL of the samples collected were put back into the original amber jar and then remaining 1 mL was transferred to HPLC vial for analysis.

For “^14C-3-[5-(2-fluoro-phenyl)-[1,2,4]oxadiazol-3-yl]benzoic acid”, the Concentrations of radioactivity in data set [1] (Exorbital lacrimal gland, 0.5 hr) was 28.0 µg/g; in data set [1] (Exorbital lacrimal gland, 1 hr), 7.59 µg/g; in data set [1] (Exorbital lacrimal gland, 2 hr), 22.4 µg/g; in data set [1] (Exorbital lacrimal gland, 4 hr), 10.2 µg/g; in data set [1] (Exorbital lacrimal gland, 8 hr), 8.09 µg/g; in data set [1] (Exorbital lacrimal gland, 24 hr) it was “BLQ (BLQ = below the limit of quantitation (<0.457 μg equivalents ^14C-3-[5-(2-fluoro-phenyl)-[1,2,4]oxadiazol-3-yl]benzoic acid))”. Moreover, the Concentrations of radioactivity entry in data set [1] (Exorbital lacrimal gland, 72 hr) is “BLQ (BLQ = below the limit of quantitation (<0.457 μg equivalents ^14C-3-[5-(2-fluoro-phenyl)-[1,2,4]oxadiazol-3-yl]benzoic acid))”; in data set [1] (Eye (lens), 0.5 hr), “BLQ (BLQ = below the limit of quantitation (<0.457 μg equivalents ^14C-3-[5-(2-fluoro-phenyl)-[1,2,4]oxadiazol-3-yl]benzoic acid))”; in data set [1] (Eye (lens), 1 hr), “BLQ (BLQ = below the limit of quantitation (<0.457 μg equivalents ^14C-3-[5-(2-fluoro-phenyl)-[1,2,4]oxadiazol-3-yl]benzoic acid))”; in data set [1] (Eye (lens), 2 hr) it was “BLQ (BLQ = below the limit of quantitation (<0.457 μg equivalents ^14C-3-[5-(2-fluoro-phenyl)-[1,2,4]oxadiazol-3-yl]benzoic acid))”; in data set [1] (Eye (lens), 4 hr) it was “BLQ (BLQ = below the limit of quantitation (<0.457 μg equivalents ^14C-3-[5-(2-fluoro-phenyl)-[1,2,4]oxadiazol-3-yl]benzoic acid))”; in data set [1] (Eye (lens), 8 hr), “BLQ (BLQ = below the limit of quantitation (<0.457 μg equivalents ^14C-3-[5-(2-fluoro-phenyl)-[1,2,4]oxadiazol-3-yl]benzoic acid))”. Moreover, the Concentrations of radioactivity result was “BLQ (BLQ = below the limit of quantitation (<0.457 μg equivalents ^14C-3-[5-(2-fluoro-phenyl)-[1,2,4]oxadiazol-3-yl]benzoic acid))” in data set [1] (Eye (lens), 24 hr); 4.59 µg/g in data set [1] (Eye, 0.5 hr); 1.78 µg/g in data set [1] (Eye, 1 hr); 3.62 µg/g in data set [1] (Eye, 2 hr); 2.69 µg/g in data set [1] (Eye, 4 hr); 2.08 µg/g in data set [1] (Eye, 8 hr). Besides, the Concentrations of radioactivity result in data set [1] (Eye, 24 hr) is “BLQ (BLQ = below the limit of quantitation (<0.457 μg equivalents ^14C-3-[5-(2-fluoro-phenyl)-[1,2,4]oxadiazol-3-yl]benzoic acid))”; in data set [1] (Hardenian gland, 0.5 hr), 46.8 µg/g; in data set [1] (Hardenian gland, 1 hr), 16.0 µg/g; in data set [1] (Hardenian gland, 2 hr) it was 38.2 µg/g; in data set [1] (Hardenian gland, 4 hr), 18.1 µg/g; in data set [1] (Hardenian gland, 8 hr), 13.0 µg/g. Besides, the Concentrations of radioactivity in data set [1] (Hardenian gland, 24 hr) amounted to 1.59 µg/g; in data set [1] (Intra-orbital lacrimal gland, 0.5 hr), 28.8 µg/g; in data set [1] (Intra-orbital lacrimal gland, 1 hr) it was 10.3 µg/g; in data set [1] (Intra-orbital lacrimal gland, 2 hr), 25.2 µg/g; in data set [1] (Intra-orbital lacrimal gland, 4 hr) it was 11.7 µg/g; in data set [1] (Intra-orbital lacrimal gland, 8 hr), 10.3 µg/g. Moreover, the Concentrations of radioactivity result in data set [1] (Intra-orbital lacrimal gland, 24 hr) is “BLQ (BLQ = below the limit of quantitation (<0.457 μg equivalents ^14C-3-[5-(2-fluoro-phenyl)-[1,2,4]oxadiazol-3-yl]benzoic acid))”; in data set [1] (Uveal tract, 0.5 hr), 20.6 µg/g; in data set [1] (Uveal tract, 1 hr), 10.4 µg/g; in data set [1] (Uveal tract, 2 hr), 18.1 µg/g; in data set [1] (Uveal tract, 4 hr), 6.09 µg/g; in data set [1] (Uveal tract, 8 hr), 11.6 µg/g. Moreover, the Concentrations of radioactivity entry in data set [1] (Uveal tract, 24 hr) is “BLQ (BLQ = below the limit of quantitation (<0.457 μg equivalents ^14C-3-[5-(2-fluoro-phenyl)-[1,2,4]oxadiazol-3-yl]benzoic acid))”; in data set [2] (Female, Exorbital lacrimal gland), 10.3 µg/g; in data set [2] (Female, Harderian gland), 18.7 µg/g; in data set [2] (Female, Intra-orbital lacrimal gland) it was 10.2 µg/g; in data set [2] (Female, matrix cell blank (first line)), 1.41 µg/g; in data set [2] (Male, Exorbital lacrimal gland) it was 21.1 µg/g. Also, the Concentrations of radioactivity was 3.39 µg/g in data set [2] (Male, Eye); 21.6 µg/g in data set [2] (Male, Harderian gland); 21.8 µg/g in data set [2] (Male, Intra-orbital lacrimal gland).
Take `O=C(O)c1cccc(-c2noc(-c3ccccc3F)n2)c1` [Micronized Compound 1]: the “Concentration of Compound 1 in 0.1N HCl + 0.5% SLS” value in data set [3] (5 minutes) was 6.85 µg/mL; in data set [3] (10 minutes), 6.81 µg/mL; in data set [3] (30 minutes), 6.83 µg/mL; in data set [3] (60 minutes) it was 7.04 µg/mL; in data set [3] (90 minutes), 6.88 µg/mL; in data set [3] (120 minutes), 7.18 µg/mL. The “Concentration of Compound 1 in PBS” value in data set [3] (5 minutes) amounted to 189.13 µg/mL; in data set [3] (10 minutes) it was 191.45 µg/mL; in data set [3] (30 minutes), 197.59 µg/mL; in data set [3] (60 minutes), 199.95 µg/mL; in data set [3] (90 minutes), 200.29 µg/mL; in data set [3] (120 minutes) it was 203.08 µg/mL.
`O=C(O)c1cccc(-c2noc(-c3ccccc3F)n2)c1` [Non-Micronized Compound 1]: the “Concentration of Compound 1 in 0.1N HCl + 0.5% SLS” value in data set [3] (5 minutes) was 6.24 µg/mL; in data set [3] (10 minutes), 6.38 µg/mL; in data set [3] (30 minutes) it was 6.87 µg/mL; in data set [3] (60 minutes) it was 6.99 µg/mL; in data set [3] (90 minutes), 6.97 µg/mL; in data set [3] (120 minutes), 7.04 µg/mL. Moreover, the “Concentration of Compound 1 in PBS” value came to 141.89 µg/mL in data set [3] (5 minutes); 152.59 µg/mL in data set [3] (10 minutes); 176.92 µg/mL in data set [3] (30 minutes); 185.18 µg/mL in data set [3] (60 minutes); 194.06 µg/mL in data set [3] (90 minutes); 196.54 µg/mL in data set [3] (120 minutes).
